In US20230033360A1, “COMPOUNDS AS CD73 INHIBITORS” (BioArdis LLC, priority 2019, published 2023):

Target: T1, Recombinant Human 5′-Nucleotidase (CD73) (Homo sapiens, UniProt P21589)
T1 construct: CHO derived CD73 (Trp27-Lys547), with a C-terminal 6-His tag; 6-His (C); purchased R&D 5795-EN; host or cells: CHO
T1 sequence (P21589 27-547): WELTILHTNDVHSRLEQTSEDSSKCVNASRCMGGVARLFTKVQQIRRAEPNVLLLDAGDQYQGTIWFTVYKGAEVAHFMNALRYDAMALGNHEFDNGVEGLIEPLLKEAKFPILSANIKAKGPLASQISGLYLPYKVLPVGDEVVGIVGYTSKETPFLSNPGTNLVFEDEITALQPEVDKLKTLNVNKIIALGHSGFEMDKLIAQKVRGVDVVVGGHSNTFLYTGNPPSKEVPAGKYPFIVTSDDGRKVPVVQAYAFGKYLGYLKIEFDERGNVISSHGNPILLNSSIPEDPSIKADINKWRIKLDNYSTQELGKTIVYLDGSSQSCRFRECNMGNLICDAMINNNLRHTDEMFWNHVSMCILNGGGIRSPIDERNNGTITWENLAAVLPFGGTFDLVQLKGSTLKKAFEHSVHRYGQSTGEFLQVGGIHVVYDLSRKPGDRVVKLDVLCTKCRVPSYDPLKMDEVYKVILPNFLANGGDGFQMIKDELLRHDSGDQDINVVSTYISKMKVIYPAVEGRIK
Test: CD73 Enzyme Assay (PiColorLock inorganic phosphate detection, AMP substrate)
Type: biochemical
Settings: human CD73 0.5 nM, AMP 30 μM, 20 min at 37° C., absorbance 635 nm; read-out: Potency (IC50)
Excerpt: Soluble recombinant CD73 catalyzes the conversion of adenosine monophosphate (AMP) to adenosine and inorganic phosphate. The phosphate detection reagent, PiColorLock™ (Innova Bioscience, Cat #303-0125) is based on the change in absorbance of the dye malachite green in the presence of inorganic phosphate (Pi) and this property can be exploited to measure any enzyme that generates Pi. Recombinant Human 5′-Nucleotidase (CD73) (R&D #5795-EN, CHO derived CD73 (Trp27-Lys547), with a C-terminal 6-His tag) was used in the enzymatic assay. This assay, run in a 384-well plate format (Corning® NBS™ 384 well plates, Cat #3640), is a generic method for measuring inorganic phosphate. The basic assay procedure involves two steps: 1) Enzyme reaction: The CD73 enzyme (R&D #5795-EN) is incubated in the presence or absence of compounds. AMP (sigma, cat #01930) is added to start the […] reaction. 2) Detection step: Gold mix is added to the assay system, then stabilizers are added. After incubation the absorbance of the solution is read at OD 635 nm. The recorded OD signal is proportional to the enzyme activity.
Briefly, 25 μl human CD73 (0.5 nM final concentration) in the enzymatic buffer solutions (20 mM Tris, 25 mM NaCl, 1 mM MgCl2, pH 7.5, 0.005% Tween-20) were mixed with various concentrations of the test compound (dissolved in 100% DMSO). These solutions were incubated for 15 min at 25° C., and subsequently 25 μl AMP (30 μM final concentration) was added to start the reaction. The final reaction mixture of enzyme-substrate-compound was incubated for 20 min at 37° C. Meanwhile ‘Gold mix’ was prepared shortly before use by adding 1/100 vol. of accelerator to the PiColorLock™ Gold reagent. 12 μL/well of the ‘Gold mix’ was added to assay plate containing 50 μL enzyme reaction buffer and incubated at 25° C. for 5 min. 5 μL/well stabilizer was added to the assay plate and incubated at 25° C. for 30 min. The absorbance of the well solutions was measured at 635 nm on a Spark 10M instrument (TECAN).
The percent (%) inhibition at each concentration of a compound was calculated relative to the […] value in the Max and Min control wells contained within each assay plate. The Max control wells contained enzyme and substrate as 0% inhibition, and the Min control wells only contained substrate without enzyme as 100% inhibition. The concentrations and percent inhibition values for a test compound are plotted and the concentration of the compound required to achieve 50% inhibition (IC50) was determined with a four-parameter logistic dose response equation.

Structure (SMILES) | IC50
O=P(O)(O)CP(=O)(O)OC[C@H]1O[C@@H](c2cnc3c(N4CCC(F)(F)C4)cc(Cl)nn23)[C@H](O)[C@@H]1O [Example S35, (((((2R,3S,4R,5S)-5-(6-chloro-8-(3,3-difluoropyrrolidin-1-yl)imidazo[1,2-b]pyridazin-3-yl)-3,4-dihydroxytetrahydrofuran-2-yl)methoxy)(hydroxy)phosphoryl)methyl)phosphonic acid] | 1 to 9.9 nM
O=P(O)(O)CP(=O)(O)OC[C@H]1O[C@@H](c2csc3c(N4CC5CCCC5C4)cc(Cl)nc23)[C@@H](F)[C@@H]1O (stereo partly drawn) [Example S43, (((((2R,3R,4S,5S)-5-(5-chloro-7-(hexahydrocyclopenta[c]pyrrol-2 (1H)-yl)thieno[3,2-b]pyridin-3-yl)-4-fluoro-3-hydroxytetrahydrofuran-2-yl)methoxy)(hydroxy)phosphoryl)methyl)phosphonic acid] | 10 to 99 nM
C[C@H](Nc1cc(Cl)nn2c(C3O[C@H](COP(=O)(O)CP(=O)(O)O)[C@@H](O)[C@H]3O)cnc12)c1ccccc1 (stereo partly drawn) [Example S18, (((((2R,3S,4R)-5-(6-chloro-8-(((S)-1-phenylethyl)amino)imidazo[1,2-b]pyridazin-3-yl)-3,4-dihydroxytetrahydrofuran-2-yl)methoxy)(hydroxy)phosphoryl)methyl)phosphonic acid] | 1 to 9.9 nM
O=P(O)(O)CP(=O)(O)OC[C@H]1O[C@@H](c2ncc3c(NC4CCCC4)cc(Cl)nn23)[C@H](O)[C@@H]1O [Example S7, (((((2R,3S,4R,5S)-5-(2-chloro-4-(cyclopentylamino)imidazo[1,5-b]pyridazin-7-yl)-3,4-dihydroxytetrahydrofuran-2-yl)methoxy)(hydroxy)phosphoryl)methyl)phosphonic acid] | 1 to 9.9 nM

Now from value to molecule:

IC50 | Structure (SMILES)
1 to 9.9 nM | O=P(O)(O)CP(=O)(O)OC[C@H]1OC(c2cnc3c(N4CCc5ccccc54)cc(Cl)nn23)[C@H](O)[C@@H]1O (stereo partly drawn) [Example S25, (((((2R,3S,4R)-5-(6-chloro-8-(indolin-1-yl)imidazo[1,2-b]pyridazin-3-yl)-3,4-dihydroxytetrahydrofuran-2-yl)methoxy)(hydroxy)phosphoryl)methyl)phosphonic acid]
1 to 9.9 nM | O=P(O)(O)CP(=O)(O)OC[C@H]1O[C@@H](c2ncc3c(N4CCCC4)cc(Cl)nn23)[C@H](O)[C@@H]1O [Example S38, [({[(2R,3S,4R,5S)-5-[2-chloro-4-(pyrrolidin-1-yl)imidazo[1,5-b]pyridazin-7-yl]-3,4-dihydroxyoxolan-2-yl]methoxy}(hydroxy)phosphoryl)methyl]phosphonic acid]
1 to 9.9 nM | O=P(O)(O)CP(=O)(O)OC[C@H]1O[C@@H](c2ncc3c(N4CCc5ccccc54)cc(Cl)nn23)[C@H](O)[C@@H]1O [Example S40, [({[(2R,3S,4R,5S)-5-[2-chloro-4-(2,3-dihydroindol-1-yl)imidazo[1,5-b]pyridazin-7-yl]-3,4-dihydroxyoxolan-2-yl]methoxy}(hydroxy)phosphoryl)methyl]phosphonic acid]
